Blank lines part the entries; values can stand above or below the molecule they belong to.
What was measured:
human SGLT2 = target: T1, human SGLT2 (Homo sapiens, UniProt P31639); test: Assay for inhibitory effects on human SGLT2 activity (uptake of methyl-α-D-glucopyranoside in CS2-5E cells); assay type: cell-based; conditions: inhibition of 14C α-MG uptake, CHO-K1 derived CS2-5E cells stably expressing human SGLT2, 1 mM α-MG, 37° C., 1 hour
T1 construct: expressed in transfected cells
T1 sequence (P31639 1-672): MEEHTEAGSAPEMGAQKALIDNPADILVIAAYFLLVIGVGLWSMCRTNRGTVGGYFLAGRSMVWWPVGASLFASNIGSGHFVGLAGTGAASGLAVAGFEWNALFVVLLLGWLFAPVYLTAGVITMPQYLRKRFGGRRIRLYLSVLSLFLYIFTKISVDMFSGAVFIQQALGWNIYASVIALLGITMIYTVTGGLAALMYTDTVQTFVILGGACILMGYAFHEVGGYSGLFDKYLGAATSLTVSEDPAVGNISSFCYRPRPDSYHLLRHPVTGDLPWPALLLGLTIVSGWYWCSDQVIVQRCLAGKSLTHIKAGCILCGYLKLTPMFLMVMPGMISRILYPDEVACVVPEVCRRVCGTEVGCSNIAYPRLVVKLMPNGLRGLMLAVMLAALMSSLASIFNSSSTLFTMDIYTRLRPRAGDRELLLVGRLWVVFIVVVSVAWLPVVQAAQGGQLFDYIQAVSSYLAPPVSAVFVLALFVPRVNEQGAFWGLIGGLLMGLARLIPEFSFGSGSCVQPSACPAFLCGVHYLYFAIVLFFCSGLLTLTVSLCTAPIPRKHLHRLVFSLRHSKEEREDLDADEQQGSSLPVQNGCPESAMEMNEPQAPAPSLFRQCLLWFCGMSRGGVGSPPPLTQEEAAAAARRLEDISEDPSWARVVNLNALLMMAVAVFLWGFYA
Protocol: Assay for Inhibitory Effects on Human SGLT2 Activity
1) Cloning and Construction of the Vector Expressing Human SGLT2
(§1) The cDNA library was prepared for PCR amplification by reverse transcription from total RNA deprived from human kidney (Ori gene) using oligo-dT as a primer. Using this cDNA library as a template, the DNA fragment coding 2 to 2039 bp of human SGLT2 (ACCESSION: M95549, M95299), which was reported by R. G. Wells et al., was amplified by PCR method and inserted into the multi-cloning site of pcDNA3.1(−) (Invitrogen). The DNA sequence inserted was perfectly matched to the previously reported sequence.
2) Establishment of Cell Line Stably Expressing Human SGLT2
(§2) The expression vector of human SGLT2 was digested by Sca I into a linear DNA. The linear DNA was transfected into CHO-K1 cells by means of lipofection (Effectene Transfection Reagent: QIAGEN). Neomycin resistant cell lines were selected by culture in the medium containing G418 (1 mg/mL, LIFE TECHNOLOGIES), and then the activity against the uptake of methyl-α-D-glucopyranoside was measured by the method described below. […] CS2-5E cells were cultured in the presence of G418 at 200 μg/mL. […]
CS2-5E cells were seeded into a 96-well culture plate at a density of 3×10^4 cells/well and cultured for 2 days, and were used in the uptake assay. […] Radioactivity was measured by means of micro-scintillation counter TopCount (Packard). […]

human SGLT1 = target: T2, human SGLT1 (Homo sapiens, UniProt P13866); test: Assay for inhibitory effects on human SGLT1 activity (uptake of methyl-α-D-glucopyranoside in CS1-5-11D cells); assay type: cell-based; conditions: inhibition of 14C α-MG uptake, CHO-K1 derived CS1-5-11D cells stably expressing human SGLT1, 1 mM α-MG, 37° C., 1 hour
T2 construct: expressed in transfected cells
T2 sequence (P13866 1-664): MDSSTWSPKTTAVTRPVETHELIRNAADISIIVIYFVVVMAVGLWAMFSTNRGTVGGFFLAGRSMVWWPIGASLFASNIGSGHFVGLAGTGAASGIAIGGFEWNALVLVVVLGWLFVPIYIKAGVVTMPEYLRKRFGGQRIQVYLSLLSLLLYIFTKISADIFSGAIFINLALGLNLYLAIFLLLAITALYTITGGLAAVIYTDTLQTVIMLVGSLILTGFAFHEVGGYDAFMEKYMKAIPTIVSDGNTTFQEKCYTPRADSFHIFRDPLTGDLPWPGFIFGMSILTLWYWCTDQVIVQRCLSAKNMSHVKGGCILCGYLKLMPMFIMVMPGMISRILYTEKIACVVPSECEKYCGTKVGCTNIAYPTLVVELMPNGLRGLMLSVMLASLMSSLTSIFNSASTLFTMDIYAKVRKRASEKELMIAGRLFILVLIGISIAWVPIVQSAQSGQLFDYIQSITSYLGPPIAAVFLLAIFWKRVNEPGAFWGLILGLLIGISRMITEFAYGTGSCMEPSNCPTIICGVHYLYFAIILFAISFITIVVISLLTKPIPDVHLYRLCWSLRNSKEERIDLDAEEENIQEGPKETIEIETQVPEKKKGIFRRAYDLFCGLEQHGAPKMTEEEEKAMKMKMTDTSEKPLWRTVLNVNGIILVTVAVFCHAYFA
Protocol: Assay for Inhibitory Effects on Human SGLT1 Activity
1) Cloning and Construction of the Vector Expressing Human SGLT1
as §1, with “small intestine” for “kidney”, “1” for “2”, “2005” for “2039”, “SGLT1” for “SGLT2”, “M24847),” for “M95549, M95299),”, “Hediger” for “R. G. Wells”
2) Establishment of Cell Line Stably Expressing Human SGLT1
as §2, with “SGLT1” for “SGLT2”, “CS1-5-11D” for “CS2-5E”
CS1-5-11D cells were seeded into a 96-well culture plate at a density of 3×10^4 cells/well and cultured for 2 days, and were used in the uptake assay. […] Radioactivity was measured by means of micro-scintillation counter TopCount (Packard). […]

diabetic rats = test: Assay for inhibitory effects on blood glucose level increase in rats (liquid meal tolerance test); assay type: in vivo, Wistar rats; conditions: liquid meal load, mean±S.E.; for Plasma glucose concentration 0.5 h: 0.5 hour after administration; for Plasma glucose concentration 1 h: 1 hour after administration; for Plasma glucose concentration 0 h: pretreatment (0 h)
Protocol: Assay for Inhibitory Effects on Blood Glucose Level Increase in Rats
1) Preparation of Diabetic Rat Model
Male Wistar rats (Japan Charles River), aged 8 weeks old, were injected nicotinamide (230 mg/kg) intraperitoneally. Fifteen minutes after injection, they were injected streptozotocin (85 mg/kg) intravenously from tail vain under anesthesia with ether. After a week, rats were fasted overnight and then glucose tolerance test (2 g/kg) was done.
2) Liquid Meal Tolerance Test
After overnight fasted, the diabetic rats were orally administered a test compound (0.5, 2 mg/kg), which was dissolved in distilled water, in the drug-treating group, or distilled water alone in a control group. Immediately after the compound administration, 4.5 kcal/body of liquid meal (No. 038, Control diet, assorted with dextrin and maltose; Oriental Yeast Co., Ltd.) was loaded orally. The blood was collected from tail artery immediately before and after administration with the time course, and treated with heparin immediately. The blood was centrifuged, and the plasma was collected to quantify the plasma glucose concentration by glucose oxidase method. The values in the Table are presented as the mean±S.E.

IC50 (human SGLT2): 90 nM
Structure (SMILES): OC[C@H]1O[C@@H](Oc2n[nH]c3cccc(CCc4ccccc4)c23)[C@H](O)[C@@H](O)[C@@H]1O [Example 4, 3-(β-D-Glucopyranosyloxy)-4-(2-phenylethyl)-1H-indazole]

IC50 (human SGLT2): 68 nM
Structure (SMILES): OCCn1nc(O[C@@H]2O[C@H](CO)[C@@H](O)[C@H](O)[C@H]2O)c2c(CCc3ccccc3)ccnc21 [Example 17, 3-(β-D-Glucopyranosyloxy)-1-(2-hydroxyethyl)-4-(2-phenylethyl)-1H-pyrazolo[3,4-b]pyridine]

The next lines start with the molecule.

Structure (SMILES): Cc1cc(CCc2cccc3[nH]nc(O[C@@H]4O[C@H](CO)[C@@H](O)[C@H](O)[C@H]4O)c23)ccc1O [Example 5, 3-(β-D-Glucopyranosyloxy)-4-[2-(4-hydroxy-3-methylphenyl)-ethyl]-1H-indazole]
IC50 (human SGLT1): 12 nM

Structure (SMILES): NC(=O)Cn1nc(O[C@@H]2O[C@H](CO)[C@@H](O)[C@H](O)[C@H]2O)c2c(CCc3ccc(O)cc3)ccnc21 [Example 12, 1-Carbamoylmethyl-3-(β-D-glucopyranosyloxy)-4-[2-(4-hydroxyphenyl)ethyl]-1H-pyrazolo[3,4-b]pyridine]
IC50 (human SGLT1): 100 nM

Structure (SMILES): OCCn1nc(O[C@@H]2O[C@H](CO)[C@@H](O)[C@H](O)[C@H]2O)c2c(CCc3ccc(O)cc3)cccc21 [Example 59, 3-(β-D-Glucopyranosyloxy)-1-(2-hydroxyethyl)-4-[2-(4-hydroxyphenyl)ethyl]-1H-indazole]
Plasma glucose concentration 0.5 h (diabetic rats; 0.5 mg/kg orally): 173 ± 7 mg/dL
Plasma glucose concentration 1 h (diabetic rats; 0.5 mg/kg orally): 186 ± 6 mg/dL
Plasma glucose concentration 0 h (diabetic rats; 0.5 mg/kg orally): 109 ± 2 mg/dL
Plasma glucose concentration 0.5 h (diabetic rats; 2 mg/kg orally): 141 ± 3 mg/dL
Plasma glucose concentration 1 h (diabetic rats; 2 mg/kg orally): 153 ± 4 mg/dL
Plasma glucose concentration 0 h (diabetic rats; 2 mg/kg orally): 115 ± 3 mg/dL
